# Experimental data reported in ChEMBL document CHEMBL4673175, “An epigrammatic status of the azole-based antimalarial drugs” (RSC Med Chem, 2020).
# How the values were obtained:
# [1] = tested on: Falcipain-2 (Plasmodium falciparum); assay: Inhibition of Plasmodium falciparum falcipain-2 in enzyme assay
# [2] = tested on: Plasmodium falciparum; assay: Antimalarial activity against chloroquine sensitive Plasmodium falciparum 3D7 incubated for 72 hrs by JSB1/JSB2 staining based assay; format: functional, organism-based; settings: 3D7, 72 h
# [3] = tested on: Plasmodium falciparum; assay: Antiplasmodial activity against chloroquine resistant Plasmodium falciparum Dd2; format: functional, organism-based
# [4] = tested on: Plasmodium falciparum; assay: Antimalarial activity against Plasmodium falciparum assessed as reduction in [3H]-hypoxanthine incorporation into DNA incubated for 36 hrs by beta counter method; format: functional, organism-based
# [5] = tested on: Plasmodium falciparum; assay: Antimalarial activity against chloroquine resistant Plasmodium falciparum incubated for 24 to 48 hrs by Giemsa staining based assay; format: functional, organism-based
# [6] = tested on: Plasmodium falciparum; assay: Antimalarial activity against chloroquine sensitive Plasmodium falciparum incubated for 24 to 48 hrs by Giemsa staining based assay; format: functional, organism-based
# [7] = tested on: Plasmodium falciparum; assay: Antiplasmodial activity against chloroquine sensitive Plasmodium falciparum D10; format: functional, organism-based
# [8] = tested on: Plasmodium berghei; assay: Antimalarial activity against Plasmodium berghei ANKA infected in Swiss albino mouse assessed as parasitemia suppression at 50 micromol/kg, po administered for 4 days and measured at 24 hrs post-last dose by Giemsa staining based microscopic method relative to control; format: functional; settings: dose 50 µmol/kg; time 4 day
# [9] = tested on: Plasmodium falciparum; assay: Antimalarial activity against chloroquine resistant Plasmodium falciparum RKL9 assessed as reduction in schizont maturation incubated for 24 hrs by Giemsa staining based assay; format: functional, organism-based; settings: RKL9, 24 h
# [10] = tested on: Plasmodium falciparum; assay: Antimalarial activity against chloroquine-resistant ring-stage Plasmodium falciparum W2 infected in human erythrocytes by HRP2 assay; format: functional, organism-based
# [11] = target: T1, Enoyl-acyl-carrier protein reductase (Plasmodium falciparum, UniProt Q965D5); assay: Inhibition of Plasmodium falciparum enoyl-ACP reductase using crotonoyl-CoA as substrate by UV-Vis spectrophotometric method
# T1 sequence (Q965D5 whole entry): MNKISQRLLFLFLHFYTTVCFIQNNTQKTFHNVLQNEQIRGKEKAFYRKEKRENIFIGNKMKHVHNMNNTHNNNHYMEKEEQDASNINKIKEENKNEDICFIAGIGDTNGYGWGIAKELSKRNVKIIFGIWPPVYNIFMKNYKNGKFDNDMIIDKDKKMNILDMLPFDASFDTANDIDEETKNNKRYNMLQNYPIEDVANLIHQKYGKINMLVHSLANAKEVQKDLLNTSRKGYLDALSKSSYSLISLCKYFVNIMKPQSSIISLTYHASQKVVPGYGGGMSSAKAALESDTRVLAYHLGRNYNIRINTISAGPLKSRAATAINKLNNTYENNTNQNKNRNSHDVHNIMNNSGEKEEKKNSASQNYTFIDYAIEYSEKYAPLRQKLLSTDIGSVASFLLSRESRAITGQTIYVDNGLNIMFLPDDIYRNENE
# [12] = tested on: Plasmodium falciparum; assay: Antiplasmodial activity against ring stage Plasmodium falciparum incubated for 72 hrs by SYBR Green I based assay; format: functional, organism-based
# [13] = tested on: Plasmodium falciparum; assay: Antimalarial activity against chloroquine resistant Plasmodium falciparum; format: functional, organism-based
# [14] = tested on: Plasmodium falciparum; assay: Antimalarial activity against chloroquine sensitive Plasmodium falciparum; format: functional, organism-based
# [15] = Selectivity index, ratio of EC50 for cytotoxicity against […] cells to EC50 for antiplasmodial activity against Plasmodium falciparum FCR-3 ATCC 30932 infected in human erythrocytes; format: toxicity, cell-based; settings: mouse, read-out: Ratio EC50
# [16] = tested on: Plasmodium falciparum; assay: Antiplasmodial activity against chloroquine sensitive Plasmodium falciparum FCR-3 infected in human erythrocytes incubated for 72 hrs by giemsa staining based assay; format: functional, organism-based; settings: FCR-3, 72 h
# [17] = tested on: Plasmodium falciparum; assay: Antiplasmodial activity against Plasmodium falciparum IPC5202 by whole-cell SYBR Green I based assay; format: functional, organism-based
# [18] = tested on: Plasmodium falciparum; assay: Antiplasmodial activity against chloroquine-resistant/mefloquine resistant early ring stage Plasmodium falciparum Dd2 by whole-cell SYBR Green I based assay; format: functional, organism-based
# [19] = tested on: Plasmodium falciparum; assay: Antiplasmodial activity against Plasmodium falciparum IPC4912 by whole-cell SYBR Green I based assay; format: functional, organism-based
# [20] = tested on: Plasmodium falciparum; assay: Antiplasmodial activity against chloroquine-sensitive/mefloquine resistant early ring stage Plasmodium falciparum 3D7 by whole-cell SYBR Green I based assay; format: functional, organism-based
# [21] = tested on: Hemozoin; assay: Inhibition of beta-hematin formation at 5 to 100 mM incubated for 48 hrs; settings: dose 5-100 mM
# [22] = tested on: Plasmodium berghei; assay: Antimalarial activity against Plasmodium berghei ANKA infected in Balb-C mouse assessed as parasitemia at 10 mg/kg, ip administered once daily for 4 consecutive days by Giemsa staining based assay relative to control; format: functional; settings: time 4 day
# [23] = tested on: Plasmodium berghei; assay: Antimalarial activity against Plasmodium berghei ANKA infected in Balb-C mouse assessed as mouse survival time at 10 mg/kg, ip administered once per day for 4 consecutive days (reference value: 8.20 +/- 0.20 days); format: functional; settings: time 4 day
# [24] = tested on: Plasmodium falciparum; assay: Antimalarial activity against chloroquine sensitive Plasmodium falciparum 3D7 assessed as reduction in schizont maturation incubated for 24 hrs by Giemsa staining based assay; format: functional, organism-based; settings: 3D7, 24 h
compound,measurement,setting,value
COc1ccc(/C=C(\C#N)c2nc3ccccc3[nH]2)cc1O,IC50,[1],690 nM
COc1ccc(-n2cc(C3CC(c4ccc(N)cc4)=NN3C(N)=S)c(-c3ccccc3)n2)cc1 (configuration not stated),IC50,[2],< 5 µM
Clc1ccccc1CN1CC1Cn1cc(-c2ccccc2)nn1 (configuration not stated),IC50,[3],≤ 25 µM
COc1cc(/C=C(/C#N)c2nc3ccccc3[nH]2)cc(OC)c1,IC50,[1],690 nM
COc1ccccc1Nc1n[nH]c(N)c1C#N,IC50,[4],140 nM
CC(C)c1nc(CC(N)C(=O)O)c[nH]1 (configuration not stated),IC50,[5],10 µM
same,IC50,[6],10 µM
CCNCC(Cn1cc(-c2ccccc2)nn1)NCc1ccc(Cl)cc1 (configuration not stated),IC50,[7],≤ 25 µM
NC(=S)N1N=C(c2ccc(N)cc2)CC1c1cn(-c2ccccc2)nc1-c1ccccc1 (configuration not stated),IC50,[2],< 5 µM
COc1cccc(Nc2n[nH]c(N)c2C#N)c1,IC50,[4],140 nM
Cc1ccc(-n2cc(C(=O)O)c(-c3ccccc3)n2)cc1,Activity,[8],83%
same,IC50,[9],33 nM
CCOC(=O)c1cn(-c2ccnc3cc(Cl)ccc23)nn1,IC50,[10],1400 nM
Cc1ccc(-n2cc(C=O)c(-c3ccccc3)n2)cc1,Activity,[8],83%
same,IC50,[9],33 nM
Cc1ccc(-c2nn(-c3nccc(C(F)(F)F)n3)cc2C=O)cc1,IC50,[11],30 µM
CCOC(=O)c1sc(N/N=C(\C)c2ccccn2)nc1C,IC50,[12],725 nM
Clc1ccc(COC(Cn2ccnc2)c2ccc(Cl)cc2Cl)c(Cl)c1 (configuration not stated) [MICONAZOLE],IC50,[13],200 nM
same,IC50,[14],200 nM
C=CCn1c(=O)/c(=C2\Sc3ccccc3N2C)s/c1=C\c1cc[n+](C)cc1,selectivity ratio,[15],> 100
same,EC50,[16],4 nM
FC(F)c1cn(-c2ccnc3cc(Cl)ccc23)nn1,IC50,[10],1400 nM
CC(C)(C)c1nc(CCN)c[nH]1,IC50,[5],10 µM
same,IC50,[6],10 µM
Cn1nnnc1NCC1CCC2(CC1)OOC1(O2)C2CC3CC(C2)CC1C3 (configuration not stated),IC50,[17],0.3 nM
same,IC50,[18],0.3 nM
same,IC50,[19],0.3 nM
same,IC50,[20],0.3 nM
CC(C)(C)c1nc(CC(N)C(=O)O)c[nH]1 (configuration not stated),IC50,[5],10 µM
same,IC50,[6],10 µM
CCn1c(=O)/c(=C2\Sc3ccccc3N2C)s/c1=C\c1cccc[n+]1C,selectivity ratio,[15],> 100
same,EC50,[16],4 nM
NCCc1cncn1Cc1ccccc1,IC50,[5],10 µM
same,IC50,[6],10 µM
Cn1nnnc1NCC1CCC2(CC1)OOC1(OO2)C2CC3CC(C2)CC1C3 (configuration not stated),IC50,[17],0.3 nM
same,IC50,[18],0.3 nM
same,IC50,[19],0.3 nM
same,IC50,[20],0.3 nM
CCn1c(=O)/c(=C2\Sc3ccccc3N2C)s/c1=C\c1cccc[n+]1CCO,selectivity ratio,[15],> 100
same,EC50,[16],4 nM
CNCC(Cn1cc(-c2ccccc2)nn1)NCc1ccccc1Cl (configuration not stated),IC50,[3],≤ 25 µM
same,IC50,[7],≤ 25 µM
CCn1c(=O)/c(=C2\Sc3ccccc3N2C)s/c1=C/c1cc[n+](C)c(-c2ccccc2)c1,selectivity ratio,[15],> 100
same,EC50,[16],4 nM
COc1ccc(CN2CC2Cn2cc(-c3ccccc3)nn2)cc1 (configuration not stated),IC50,[7],≤ 25 µM
Cc1ccc(NC(=O)c2ccc3[nH]c(-c4ccc([N+](=O)[O-])o4)nc3c2)c(C)c1,inhibition,[21],< 98%
same,Activity,[22],3.05%
same,Time,[23],20.2 days
CCNCC(Cn1cc(-c2ccccc2)nn1)NCc1ccccc1 (configuration not stated),IC50,[7],≤ 25 µM
Clc1ccc2c(-n3cc(C4CC4)nn3)ccnc2c1,IC50,[10],1400 nM
CN1/C(=c2\s/c(=C\c3cccc[n+]3C)n(Cc3ccccc3)c2=O)Sc2ccccc21,selectivity ratio,[15],> 100
same,EC50,[16],4 nM
Clc1ccc2c(-n3cc(OC4CCCCO4)nn3)ccnc2c1 (configuration not stated),IC50,[10],1400 nM
O=C(O)c1cn(-c2ccc(Cl)cc2)nc1-c1ccccc1,Activity,[8],83%
same,IC50,[9],33 nM
Clc1ccc2c(-n3cc(-c4ccccc4)nn3)ccnc2c1,IC50,[10],1400 nM
COc1cccc(/C=C(/C#N)c2nc3ccccc3[nH]2)c1,IC50,[1],690 nM
NC(=S)N1N=C(c2ccc(N)cc2)CC1c1cn(-c2ccc(Cl)cc2)nc1-c1ccccc1 (configuration not stated),IC50,[2],< 5 µM
N#Cc1c(Nc2ccccc2)n[nH]c1N,IC50,[4],140 nM
COc1ccc(Nc2n[nH]c(N)c2C#N)cc1,IC50,[4],140 nM
COc1ccc(C2=NN(C(N)=S)C(c3cn(-c4ccc(OC)cc4)nc3-c3ccccc3)C2)cc1 (configuration not stated),IC50,[2],< 5 µM
c1ccc(-n2nnnc2OCC2CCC3(CC2)OOC2(O3)C3CC4CC(C3)CC2C4)cc1 (configuration not stated),IC50,[17],0.3 nM
same,IC50,[18],0.3 nM
same,IC50,[19],0.3 nM
same,IC50,[20],0.3 nM
O=[N+]([O-])c1ccc(N/N=C/c2cn(-c3ccc(Cl)cc3)nc2-c2ccccc2)c([N+](=O)[O-])c1,IC50,[9],33 nM
Cc1ccc(-c2cn(CC3CN3Cc3ccccc3)nn2)cc1 (configuration not stated),IC50,[3],≤ 25 µM
same,IC50,[7],≤ 25 µM
CCn1c(=O)/c(=C2\Sc3ccccc3N2C)s/c1=C\c1ccc2ccccc2[n+]1C,selectivity ratio,[15],> 100
same,EC50,[16],4 nM
Cc1ccc(-n2cc(C3CC(c4ccc(N)cc4)=NN3C(N)=S)c(-c3ccccc3)n2)cc1 (configuration not stated),IC50,[2],< 5 µM
Cc1ccc(-n2cc(/C=N/Nc3ccncc3)c(-c3ccccc3)n2)cc1,IC50,[9],33 nM
COC(=O)c1c(Nc2cccc(OC)c2)n[nH]c1N,IC50,[4],140 nM
O=[N+]([O-])c1ccc(-c2cc(C(F)(F)F)nn2-c2ccccc2)cc1,IC50,[11],50 µM
COC(=O)c1c(Nc2ccccc2)n[nH]c1N,IC50,[4],140 nM
O=Cc1cn(-c2ccc(Cl)cc2)nc1-c1ccccc1,Activity,[8],83%
same,IC50,[9],33 nM
Clc1ccccc1C(c1ccccc1)(c1ccccc1)n1ccnc1 [CLOTRIMAZOLE],IC50,[13],200 nM
same,IC50,[14],200 nM
CC(C)n1cncc1CC(N)C(=O)O (configuration not stated),IC50,[5],10 µM
same,IC50,[6],10 µM
CC(C)c1nc(CCN)c[nH]1,IC50,[5],10 µM
same,IC50,[6],10 µM
CCn1c(=O)/c(=C2\Sc3ccccc3N2C)s/c1=C/c1cc[n+](CCCCC(=O)O)cc1,selectivity ratio,[15],> 100
same,EC50,[16],4 nM
CC(C)n1cncc1CCN,IC50,[5],10 µM
same,IC50,[6],10 µM
CCOC(=O)C1=CNC(C)=C(C(=O)OCC)C1c1ccc(OCC(=O)N/N=C/c2cn(-c3ccccc3)nc2-c2ccccc2)cc1 (configuration not stated),IC50,[24],4.4 nM
CC(C)(C)n1c(CC(N)C(=O)O)cnc1Cc1ccccc1 (configuration not stated),IC50,[5],10 µM
same,IC50,[6],10 µM
CC(=O)N1CCN(c2ccc(OCC3COC(Cn4ccnc4)(c4ccc(Cl)cc4Cl)O3)cc2)CC1 (configuration not stated) [KETOCONAZOLE],IC50,[13],200 nM
same,IC50,[14],200 nM
C[C@@H]1CC[C@H]2[C@@H](C)C(=O)O[C@@H]3O[C@@]4(C)CC[C@@H]1[C@]32OO4 [ARTEMISININ],IC50,[24],6 nM
CCn1c(=O)/c(=C2\Sc3ccccc3N2C)s/c1=C\c1cccc[n+]1CCCCC(=O)O,selectivity ratio,[15],> 100
same,EC50,[16],4 nM
CC(C)n1c(CC(N)C(=O)O)cnc1Cc1ccccc1 (configuration not stated),IC50,[5],10 µM
same,IC50,[6],10 µM
